Source: patent US11413292B2, “Tricyclic heterocycle compounds useful as HIV integrase inhibitors” (Merck Sharp & Dohme Corp., priority 2018, dated 2022)
pIC50: −log10 of the molar value. Read-outs that look alike come from different tables or passages of the source.

System: HIV-1 (H9/IIIB strain) virus
Test: microbe, parasite or virus in culture
Format: cell-based
Details: MT4-GFP cells infected with HIV-1 H9/IIIB, inhibition of reproductive ratio
[1] = 0% NHS condition (RPMI 1640), read-out: Viking, IC50 (0% NHS)
[2] = 100% normal human serum (NHS) condition, read-out: Viking, IC50 (100% NHS)
[3] = 100% normal human serum (NHS) condition, 2,2,2-trifluoroacetate, read-out: Viking, IC50 (100% NHS)
[4] = Human immunodeficiency virus 1, IIIB, 0% NHS condition (RPMI 1640), read-out: Viking, IC50 (0% NHS)

SMILES	pIC50 [1]	pIC50 [2]	pIC50 [3]	pIC50 [4]	pIC50 (0% NHS condition (RPMI 1640), 2,2,2-trifluoroacetate, read-out: Viking, IC50 (0% NHS))
O=C(NCc1cccc(Cl)c1F)c1cn2c(c(O)c1=O)C(=O)N1CCCCCN2C1 [Example 9B]	8.94	6.71	–	–	–
CN1CCN2CN(CC1)n1cc(C(=O)NCc3c(F)cc(F)cc3F)c(=O)c(O)c1C2=O (single isomer, unassigned) [Example 6A, 9-hydroxy-4-methyl-8,10-dioxo-N-(2,4,6-trifluorobenzyl)-3,4,5,6,8,10-hexahydro-2H-1,7-methanopyrido[1,2-b][1,2,5,8]tetrazecine-11-carboxamide 2,2,2-trifluoroacetate]	–	–	6.77	8.33	–
O=C(NCc1c(F)cc(F)cc1F)c1cn2c(c(O)c1=O)C(=O)N1CCC(O)CCN2C1 (single isomer, unassigned) [Example 17D]	7.59	6.14	–	–	–
O=C(NCc1ccc(F)cc1F)c1cn2c(c(O)c1=O)C(=O)N1CCCCCN2C1 [Example 8A]	8.99	5.80	–	–	–
COC1CCN2CN(CC1)n1cc(C(=O)NCc3ccc(F)cc3F)c(=O)c(O)c1C2=O (single isomer, unassigned) [Example 20B]	8.55	6.43	–	–	–
O=C(NCc1c(F)cc(F)cc1F)c1cn2c(c(O)c1=O)C(=O)N1CCOCCN2C1 [Example 14A]	8.27	5.38	–	–	–
COC1CCN2CN(CC1)n1cc(C(=O)NCc3cccc(F)c3F)c(=O)c(O)c1C2=O (single isomer, unassigned) [Example 23D]	8.72	6.25	–	–	–
COC1CCN2CN(CC1)n1cc(C(=O)NCc3cccc(F)c3F)c(=O)c(O)c1C2=O (single isomer, unassigned) [Example 23C]	8.37	7.08	–	–	–
COC1CCN2CN(CC1)n1cc(C(=O)NCc3ccc(F)c(Cl)c3F)c(=O)c(O)c1C2=O (single isomer, unassigned) [Example 21A]	8.60	5.60	–	–	–
O=C(NCc1c(F)cc(F)cc1F)c1cn2c(c(O)c1=O)C(=O)N1CCCCCN2C1 (single isomer, unassigned) [Example 1B, 9-hydroxy-8,10-dioxo-N-(2,4,6-trifluorobenzyl)-3,4,5,6,8,10-hexahydro-2H-1,7-methanopyrido[1,2-b][1,2,5]triazecine-11-carboxamide]	9.00	7.02	–	–	–
O=C(NCc1ccc(F)cc1F)c1cn2c(c(O)c1=O)C(=O)N1CCC(F)(F)CCN2C1 [Example 26A]	8.18	6.06	–	–	–
O=C(NCc1ccc(F)cc1F)c1cn2c(c(O)c1=O)C(=O)N1CCCCN2C1 [Example 2B]	8.82	6.63	–	–	–
O=C(NCc1cccc(Cl)c1F)c1cn2c(c(O)c1=O)C(=O)N1CCOCCN2C1 [Example 13A]	8.56	5.47	–	–	–
O=C(NCc1c(F)ccc(Cl)c1F)c1cn2c(c(O)c1=O)C(=O)N1CCOCCN2C1 [Example 16A]	8.57	4.91	–	–	–
COC1CCN2CN(CC1)n1cc(C(=O)NCc3cccc(Cl)c3F)c(=O)c(O)c1C2=O (single isomer, unassigned) [Example 18A]	8.51	6.55	–	–	–
COC1CCN2CN(CC1)n1cc(C(=O)NCc3c(F)cc(F)cc3F)c(=O)c(O)c1C2=O (single isomer, unassigned) [Example 5C, 9-hydroxy-4-methoxy-8,10-dioxo-N-(2,4,6-trifluorobenzyl)-3,4,5,6,8,10-hexahydro-2H-1,7-methanopyrido[1,2-b][1,2,5]triazecine-11-carboxamide]	8.77	7.20	–	–	–
O=C(NCc1ccc(F)cc1F)c1cn2c(c(O)c1=O)C(=O)N1CCOCCN2C1 (single isomer, unassigned) [Example 4A, N-(2,4-difluorobenzyl)-9-hydroxy-8,10-dioxo-2,3,5,6,8,10-hexahydro-1,7-methanopyrido[1,2-e][1,4,5,8]oxatriazecine-11-carboxamide]	8.46	5.02	–	–	–
CN1CCN2CN(CC1)n1cc(C(=O)NCc3c(F)cc(F)cc3F)c(=O)c(O)c1C2=O (single isomer, unassigned) [Example 6B, 9-hydroxy-4-methyl-8,10-dioxo-N-(2,4,6-trifluorobenzyl)-3,4,5,6,8,10-hexahydro-2H-1,7-methanopyrido[1,2-b][1,2,5,8]tetrazecine-11-carboxamide 2,2,2-trifluoroacetate]	–	–	7.10	–	8.62
CN1CCN2CN(CC1)n1cc(C(=O)NCc3c(F)ccc(Cl)c3F)c(=O)c(O)c1C2=O [Example 25A]	8.35	6.00	–	–	–
COC1CCN2CN(CC1)n1cc(C(=O)NCc3c(F)cccc3F)c(=O)c(O)c1C2=O (single isomer, unassigned) [Example 22B]	8.80	6.79	–	–	–
COC1CCN2CN(CC1)n1cc(C(=O)NCc3ccc(F)c(Cl)c3F)c(=O)c(O)c1C2=O (single isomer, unassigned) [Example 21D]	8.70	6.33	–	–	–

SMILES	pIC50 [1]	pIC50 [2]	pIC50 [3]	pIC50 [4]	pIC50 (0% NHS condition (RPMI 1640), 2,2,2-trifluoroacetate, read-out: Viking, IC50 (0% NHS))
COC1CCN2CN(CC1)n1cc(C(=O)NCc3cccc(F)c3F)c(=O)c(O)c1C2=O (single isomer, unassigned) [Example 23A]	8.24	6.14	–	–	–
O=C(NCc1c(F)ccc(Cl)c1F)c1cn2c(c(O)c1=O)C(=O)N1CCCCCCN2C1 [Example 12B]	8.49	6.37	–	–	–
O=C(NCc1c(F)cc(F)cc1F)c1cn2c(c(O)c1=O)C(=O)N1CCC(F)(F)CCN2C1 (single isomer, unassigned) [Example 7A, 4,4-difluoro-9-hydroxy-8,10-dioxo-N-(2,4,6-trifluorobenzyl)-3,4,5,6,8,10-hexahydro-2H-1,7-methanopyrido[1,2-b][1,2,5]triazecine-11-carboxamide]	8.21	5.35	–	–	–
COC1CCN2CN(CC1)n1cc(C(=O)NCc3ccc(F)cc3F)c(=O)c(O)c1C2=O (single isomer, unassigned) [Example 20C]	8.12	6.22	–	–	–
CN1CCN2CN(CC1)n1cc(C(=O)NCc3cccc(Cl)c3F)c(=O)c(O)c1C2=O [Example 24B]	8.46	6.31	–	–	–
O=C(NCc1c(F)ccc(Cl)c1F)c1cn2c(c(O)c1=O)C(=O)N1CCCCCN2C1 [Example 11A]	8.46	4.90	–	–	–
COC1CCN2CN(CC1)n1cc(C(=O)NCc3ccc(F)cc3F)c(=O)c(O)c1C2=O (single isomer, unassigned) [Example 20D]	8.68	6.67	–	–	–
COC1CCN2CN(CC1)n1cc(C(=O)NCc3c(F)cccc3F)c(=O)c(O)c1C2=O (single isomer, unassigned) [Example 22D]	8.85	6.51	–	–	–
O=C(NCc1cccc(Cl)c1F)c1cn2c(c(O)c1=O)C(=O)N1CCCCCN2C1 [Example 9A]	8.59	5.25	–	–	–
O=C(NCc1c(F)ccc(Cl)c1F)c1cn2c(c(O)c1=O)C(=O)N1CCCCCCN2C1 [Example 12A]	7.85	4.97	–	–	–
CN1CCN2CN(CC1)n1cc(C(=O)NCc3c(F)ccc(Cl)c3F)c(=O)c(O)c1C2=O [Example 25B]	8.68	6.86	–	–	–
O=C(NCc1ccc(F)c(Cl)c1F)c1cn2c(c(O)c1=O)C(=O)N1CCCCCN2C1 [Example 10B]	8.78	6.65	–	–	–
O=C(NCc1ccc(F)cc1F)c1cn2c(c(O)c1=O)C(=O)N1CCCCCN2C1 [Example 8B]	9.07	6.91	–	–	–
COC1CCN2CN(CC1)n1cc(C(=O)NCc3c(F)ccc(Cl)c3F)c(=O)c(O)c1C2=O (single isomer, unassigned) [Example 19A]	8.74	6.94	–	–	–
COC1CCN2CN(CC1)n1cc(C(=O)NCc3c(F)cc(F)cc3F)c(=O)c(O)c1C2=O (single isomer, unassigned) [Example 5D, 9-hydroxy-4-methoxy-8,10-dioxo-N-(2,4,6-trifluorobenzyl)-3,4,5,6,8,10-hexahydro-2H-1,7-methanopyrido[1,2-b][1,2,5]triazecine-11-carboxamide]	8.27	6.26	–	–	–
COC1CCN2CN(CC1)n1cc(C(=O)NCc3ccc(F)cc3F)c(=O)c(O)c1C2=O (single isomer, unassigned) [Example 20A]	8.48	7.06	–	–	–
COC1CCN2CN(CC1)n1cc(C(=O)NCc3c(F)cccc3F)c(=O)c(O)c1C2=O (single isomer, unassigned) [Example 22A]	8.09	6.48	–	–	–
O=C(NCc1ccc(F)cc1F)c1cn2c(c(O)c1=O)C(=O)N1CCOCCN2C1 (single isomer, unassigned) [Example 4B, N-(2,4-difluorobenzyl)-9-hydroxy-8,10-dioxo-2,3,5,6,8,10-hexahydro-1,7-methanopyrido[1,2-e][1,4,5,8]oxatriazecine-11-carboxamide]	–	6.71	–	8.75	–
O=C(NCc1c(F)cc(F)cc1F)c1cn2c(c(O)c1=O)C(=O)N1CCC(O)CCN2C1 (single isomer, unassigned) [Example 17B]	8.12	6.56	–	–	–
COC1CCN2CN(CC1)n1cc(C(=O)NCc3cccc(Cl)c3F)c(=O)c(O)c1C2=O (single isomer, unassigned) [Example 18B]	8.60	6.36	–	–	–
O=C(NCc1c(F)cc(F)cc1F)c1cn2c(c(O)c1=O)C(=O)N1CCC(F)(F)CCN2C1 (single isomer, unassigned) [Example 7B, 4,4-difluoro-9-hydroxy-8,10-dioxo-N-(2,4,6-trifluorobenzyl)-3,4,5,6,8,10-hexahydro-2H-1,7-methanopyrido[1,2-b][1,2,5]triazecine-11-carboxamide]	8.67	7.13	–	–	–
